Assay results as given in US20120204273A1, “COMPOSITIONS RELATING TO A PHOSPHOPROTEIN AND METHODS OF USE” (SANFORD-BURNHAM MEDICAL RESEARCH INSTITUTE, priority 2010, published 2012).

Tested on: 3T3-L1 adipocytes
Assay: myc-GLUT4-GFP translocation to the cell surface
Type: cell-based, mouse
Conditions: insulin 1 nM, 20 min
Method: FIG. 2, panels A-C show knockdown of CDP138 in 3T3-L1 adipocytes inhibits insulin-stimulated glucose transport (A) and myc-GLUT4-GFP translocation (B), but not endogenous GLUT4 movement to the periphery detected in TIRF zone (C). (A): Differentiated adipocytes at day 5 were transfected with siRNAs against mouse 5730419I09Rik or the scrambled siRNA (Scr) as described earlier (Jiang et al., 2003) for 60 hrs, then serum starved overnight. Cells were then treated with or without insulin (1 nM and 100 nM) for 30 min for the glucose uptake assay, or 15 min for immunoblotting of CDP138, pAkt, Akt and β-actin. Glucose transport data are presented as mean±SD of 4 independent experiments. *P<0.05 vs Scr Insulin (1 nM) group; **P<0.01 vs Scr Insulin (100 nM) group. (B): Day 5 adipocytes were transfected with siRNAs and myc-GLUT4-GFP for 60 hrs and then serum starved overnight. Cells were then treated with insulin (1 nM) for 20 min. Cell surface Myc-GLUT4-GFP was detected with anti-myc monoclonal Ab (9E10) and Alexa Fluor 568-labeled goat anti-mouse IgG in non-permeablized cells. The Myc signal and GFP signal were quantified as previously described (Jiang et al., 2002). Data presented are representative microscopic images and mean±SD of about 160 GFP-positive cells in each group from three independent experiments. **P<0.01 vs Scr Insulin (1 nM) group. […] GLUT4 was detected with a goat anti-GLUT4 Ab and Alexa Fluor 488-conjugated donkey anti-goat Ab in permeabilized cells. Top and middle panels show 100 nm TIRF zone and representative GLUT4 TIRFM images, respectively. Data are mean±SD of 3 independent experiments. **P<0.01 vs Scr Insulin groups.
GLUT4 translocation detection with wide field fluorescence and TIRF microscopy: Both wide field and TIRF microscopy were used to detect myc-GLUT4-GFP translocation to the cell surface as previously described (Jiang et al., 2002) and herein.
To test the effect of RNAi-induced gene specific knockdown of CDP138 or overexpression of CDP138 mutants on GLUT4 translocation, siRNAs or CDP138 constructs were transfected into adipocytes together with myc-GLUT4-GFP by electroporation as previously described (Jiang et al, 2003). […] Cells were washed with cold PBS, fixed with 4% formaldehyde and immunostained. Briefly, for siRNA study, the cell surface Myc-GLUT4-GFP was visualized with mouse anti-Myc Ab (9E10) and AlexaFluoro568-labeled goat anti-mouse secondary Ab (Invitrogen) in PBS containing 1% FBS. After washing, the coverslip were mounted with Prolong antifade reagent (Invitrogen, Eugene Oreg.). Fluorescence microscopy was carried as described below. Then, images were acquired with wide field microscopy as described below. For the study with overexpressed HAtagged CDP138 constructs, the cell surface Myc-GLUT4-GFP was visualized with rabbit anti-Myc Ab (Cell signaling, Inc) and AlexaFluoro568-labeled goat anti-rabbit secondary Ab (InVitrogen) in PBS containing 1% FBS. Cells were further permeabilized with PSB containing 0.5% Tween-20, and HA-tagged protein was detected with a mouse anti-HA epitope primary Ab followed by AlexaFluoro-350-labelled goat anti-mouse IgG. Insulin-induced myc-GLUT4 accumulation (AlexaFluoro-568 signal) within the evanescence excitation field (100 nm from dorsal membrane) in transfected adipocytes was measured with a Nikon Eclipse-Ti microscope equipped with a CoolSNAP HQ2 camera and laser scanning TIRF capacity. Total GLUT4-GFP signals and […] Alexa Fluoro-350 signals were acquired with wide field imaging to identify double-transfected cells. The ratio of myc-GLUT4 signal in the TIRF zone to the total Epi-GFP signal in wide field was used as a measure of GLUT4 translocation to the cell surface.
Image Analysis and Quantification: TIRF and wide field fluorescence microscopy were performed using a Nikon inverted microscope (Melville, N.Y.) with a cooled charge-coupled device camera. […]

For insulin, the “increase in GLUT4 translocation (cell surface myc / total GFP)” value was 3 fold.
